Laboratory results reported in patent US20250099420A1, “SMALL MOLECULE MODULATORS OF GPR139 COMPLEX” (University of Florida Research Foundation, Incorporated, priority 2022, published 2025).
Like-named read-outs stand apart in the source and are kept apart here.

What was measured:
[1] = test system: parental HEK cells; assay: HEK parental Agonist Counterscreen Assay (non-transfected cells); type: cell-based; settings: for Averaged Max % Response (±St. Dev.): activity relative to known control
From the text: The high control for the agonist counterscreen was Forskolin not acetylcholine.

[2] = target: T1, GPR139 (Homo sapiens, UniProt Q6DWJ6); assay: GPR139 Agonist titration / agonist counterscreen assay (calcium detection, HEK-GPR139 cells); type: cell-based; set-up: expressed in transfected cells; host or cells: HEK Aequorin cells, Maxcyte transient transfection; settings: GPR139 Agonist Activity; for Averaged Max % Response (±St. Dev.): activity relative to known control; for EC50: read-out: EC50
T1 sequence (Q6DWJ6 1-353): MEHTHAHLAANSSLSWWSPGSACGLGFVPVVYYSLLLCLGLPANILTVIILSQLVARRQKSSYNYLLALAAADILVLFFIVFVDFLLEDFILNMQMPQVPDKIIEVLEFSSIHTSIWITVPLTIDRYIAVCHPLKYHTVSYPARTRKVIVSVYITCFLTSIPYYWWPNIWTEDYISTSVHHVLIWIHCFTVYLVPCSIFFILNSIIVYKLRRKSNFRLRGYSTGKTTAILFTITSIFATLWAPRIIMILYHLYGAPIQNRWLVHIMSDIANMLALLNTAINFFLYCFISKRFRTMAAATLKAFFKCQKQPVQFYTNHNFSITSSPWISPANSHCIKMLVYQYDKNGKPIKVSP
Description: GPR activity was assessed using a calcium detection assay. […] Negative control samples were treated with DMSO. […] Intracellular calcium was measured using Calcium 5.

[3] = values printed in E-notation without unit
[4] = Homo sapiens, HEK293, HEK Agonist Activity section of Table 4 (parental HEK counterscreen)
[5] = HEK Agonist Activity section of Table 4 (parental HEK counterscreen)

SMILES	Averaged Max % Response (±St. Dev.) [2] [%]	Lipophilic Efficiency (logD) ([2]; based on logD)	Lipophilic Efficiency (logP) ([2]; based on logP)	Hill Slope ([2]; fitted dose-response curve)	Efficiency Ligand ([2]; ligand efficiency)	EC50 [2, 3] [nM]	Lipophilic Efficiency (logD) ([1]; HEK Agonist Activity section)	Lipophilic Efficiency (logP) ([1]; HEK Agonist Activity section)	Averaged Max % Response (±St. Dev.) ([1]; HEK Agonist Activity section) [%]	EC50 [1, 4] [nM]	Efficiency Ligand [2]	Hill Slope [2]	Lipophilic Efficiency (logD) [2]	Lipophilic Efficiency (logP) [2]	EC50 ([2]; HEK-GPR139 cells) [nM]	EC50 [1, 5] [nM]	further results
CCc1nn(CC(=O)NCc2cccc(Br)c2)c(=O)c2cc3occc3n12 [SR-01000099472]	105.06 ± 17.21	5.32	5.32	0.88	0.39	26.3	–	–	–	–	–	–	–	–	–	–	Lipophilic Efficiency (logD) ([1]; HEK Agonist Activity): 2.60; Lipophilic Efficiency (logP) ([1]; HEK Agonist Activity): 2.60; Averaged Max % Response (±St. Dev.) ([1]; HEK Agonist Activity): 10.79 ± 6.86%; EC50 ([1]; Homo sapiens, HEK293, HEK Agonist Activity, parental non-transfected HEK cells): > 14100 nM
O=C(Cn1ncn2c(cc3sccc32)c1=O)NCCc1ccc(Cl)cc1 [SR-01000099712]	90.08 ± 9.76	–	–	–	–	–	2.50	2.50	7.86 ± 5.01	> 14100	0.33	1.73	3.73	3.73	839	–	–
CCCc1cc(=O)n2[nH]c(NCc3ccccc3F)nc2n1 [SR-01000100493]	100.68 ± 11.72	3.60	3.60	0.73	0.43	160	1.65	1.65	4.54 ± 3.12	–	–	–	–	–	–	> 14100	–
Cc1ccc(Br)cc1S(=O)(=O)NCCC(=O)NCCc1sccc1C [SR-01000101329]	102.96 ± 12.58	5.16	5.15	0.79	0.38	–	3.17	3.16	−2.50 ± 6.06	> 14100	–	–	–	–	–	–	–
COc1ccc(CCC(=O)Nc2ccc(/C(N)=N/O)cc2)cc1 [SR-01000103876]	114.46 ± 17.21	4.50	4.50	0.82	0.41	179	2.61	2.60	1.17 ± 3.96	–	–	–	–	–	–	> 14100	–
CC(C)CCNC(=O)C1C2C=CC3(CN(Cc4ccccc4Cl)C(=O)C13)O2 (centres unmarked) [SR-01000104567]	119.91 ± 2.22	5.19	5.19	0.32	0.40	19.8	–	–	–	–	–	–	–	–	–	–	Lipophilic Efficiency (logD) ([1]; HEK Agonist Activity): 2.34; Lipophilic Efficiency (logP) ([1]; HEK Agonist Activity): 2.34; Averaged Max % Response (±St. Dev.) ([1]; HEK Agonist Activity): 8.02 ± 5.87%; EC50 ([1]; HEK Agonist Activity, parental non-transfected HEK cells): > 14100 nM
CC(NC(=O)CN1CCN(Cc2ccc(Cl)cc2)C1=O)c1ccccc1 (centres unmarked) [SR-01000105214]	114.03 ± 9.34	3.89	3.89	0.51	0.36	245	2.13	2.13	−5.28 ± 2.10	> 14100	–	–	–	–	–	–	–
CSc1ccc(CCNC(=O)Cn2ncc3c(=O)oc4ccccc4c32)cc1 [SR-01000105999]	100.11 ± 8.55	–	–	–	–	–	2.04	2.04	4.15 ± 6.01	> 14100	0.32	1.37	3.64	3.64	355	–	–
Cc1ccc2c(c1)-c1c(cnn1CC(=O)Nc1ncccc1C)CO2 [SR-01000106321]	96.96 ± 1.13	–	–	–	–	–	1.97	1.97	6.49 ± 5.13	–	0.34	1.43	3.26	3.26	732	> 14100	–
CCOC(=O)C1C2C=CC3(CN(C(C)c4ccc(Br)cc4)C(=O)C13)O2 (centres unmarked) [SR-01000114492]	84.13 ± 7.28	–	–	–	–	–	2.28	2.28	−1.32 ± 3.21	–	0.34	0.90	3.50	3.50	853	> 14100	–
COc1ccc(C(C)N2CC34C=CC(O3)C(C(=O)OCC(C)C)C4C2=O)cc1 (centres unmarked) [SR-01000114500]	93.61 ± 11.95	4.21	4.21	1.06	0.34	184	2.32	2.32	4.75 ± 6.36	–	–	–	–	–	–	> 14100	–
O=C(CCS(=O)(=O)c1cccc2nonc12)NCCc1ccc(Cl)cc1 [SR-01000119565]	68.12 ± 14.87	–	–	–	–	–	2.79	2.79	5.54 ± 5.16	–	0.30	1.07	3.46	3.46	3000	> 14100	–
O=C(NCCn1ccc2ccccc21)c1cccs1 [SR-01000124129]	84.79 ± 6.25	3.83	3.83	0.88	0.51	123	1.77	1.77	−9.08 ± 5.27	> 14100	–	–	–	–	–	–	–
O=C(NCCn1ccc2ccccc21)c1cccc(Cl)c1 [SR-01000124131]	93.55 ± 12.47	–	–	–	–	–	1.08	1.08	−0.13 ± 10.83	> 14100	0.42	0.85	2.55	2.55	472	–	–
O=C(NCCn1ccc2ccccc21)c1cccc(Br)c1 [SR-01000124135]	71.94 ± 4.54	2.76	2.76	0.57	0.45	197	0.91	0.91	7.54 ± 4.78	> 14100	–	–	–	–	–	–	–
